Patent US20140296216A1, “PYRIMIDO[4,5-D]PYRIMIDINYL COMPOUNDS, PHARMACEUTICAL COMPOSITIONS AND USES THEREOF” (GUANGZHOU INSTITUTE OF BIOMEDICINE AND HEALTH, CHINESE …, priority 2011, published 2014)

Tests used:
EGFRL861Q = EGFRL861Q (Homo sapiens, UniProt P00533, L861Q); experiment: In vitro enzymatic activity assay (Z'-LYTE), EGFR L861Q; type: biochemical; details: Z'-LYTE FRET peptide assay; read-out: EGFRL861Q kinase activity (IC50)
Text: (§1) In vitro enzymatic activity assay: using Z′-LYTE™ technology (detect fluorescence, coupled-enzyme format, based on the differential sensitivity of phosphorylated and non-phosphorylated peptides to proteolytic cleavage), based on FRET, using Z′ LYTE™ FRET peptide substrate, detect the activity of compounds against enzymatic. […] After one hour, site specific protease which can recognize and cleaves non-phosphorylated FRET-peptide. After another hour, using an excitation wavelength of 400 nm excites, then detect the […] at 445 nm and 520 nm.

[1] = test system: A431 (Human epidermal carcinoma, EGFR high expression); experiment: Cell proliferation by MTT, A431; type: cell-based; details: A-431, read-out: A431 50% inhibitory concentration (IC50), 72 h
[2] = test system: HCC827 (lung cancer cells, EGFR E746-A750 deletion); experiment: Cell proliferation by MTT, HCC827; type: cell-based; details: Homo sapiens, HCC827, read-out: HCC827 50% inhibitory concentration (IC50), 72 h
EGFRL858R = EGFRL858R (Homo sapiens, UniProt P00533, L858R); experiment: In vitro enzymatic activity assay (Z'-LYTE), EGFR L858R; type: biochemical; details: Z'-LYTE FRET peptide assay; read-out: EGFRL858R kinase activity (IC50)
Chain of EGFRL858R (P00533 25-1210 L858R): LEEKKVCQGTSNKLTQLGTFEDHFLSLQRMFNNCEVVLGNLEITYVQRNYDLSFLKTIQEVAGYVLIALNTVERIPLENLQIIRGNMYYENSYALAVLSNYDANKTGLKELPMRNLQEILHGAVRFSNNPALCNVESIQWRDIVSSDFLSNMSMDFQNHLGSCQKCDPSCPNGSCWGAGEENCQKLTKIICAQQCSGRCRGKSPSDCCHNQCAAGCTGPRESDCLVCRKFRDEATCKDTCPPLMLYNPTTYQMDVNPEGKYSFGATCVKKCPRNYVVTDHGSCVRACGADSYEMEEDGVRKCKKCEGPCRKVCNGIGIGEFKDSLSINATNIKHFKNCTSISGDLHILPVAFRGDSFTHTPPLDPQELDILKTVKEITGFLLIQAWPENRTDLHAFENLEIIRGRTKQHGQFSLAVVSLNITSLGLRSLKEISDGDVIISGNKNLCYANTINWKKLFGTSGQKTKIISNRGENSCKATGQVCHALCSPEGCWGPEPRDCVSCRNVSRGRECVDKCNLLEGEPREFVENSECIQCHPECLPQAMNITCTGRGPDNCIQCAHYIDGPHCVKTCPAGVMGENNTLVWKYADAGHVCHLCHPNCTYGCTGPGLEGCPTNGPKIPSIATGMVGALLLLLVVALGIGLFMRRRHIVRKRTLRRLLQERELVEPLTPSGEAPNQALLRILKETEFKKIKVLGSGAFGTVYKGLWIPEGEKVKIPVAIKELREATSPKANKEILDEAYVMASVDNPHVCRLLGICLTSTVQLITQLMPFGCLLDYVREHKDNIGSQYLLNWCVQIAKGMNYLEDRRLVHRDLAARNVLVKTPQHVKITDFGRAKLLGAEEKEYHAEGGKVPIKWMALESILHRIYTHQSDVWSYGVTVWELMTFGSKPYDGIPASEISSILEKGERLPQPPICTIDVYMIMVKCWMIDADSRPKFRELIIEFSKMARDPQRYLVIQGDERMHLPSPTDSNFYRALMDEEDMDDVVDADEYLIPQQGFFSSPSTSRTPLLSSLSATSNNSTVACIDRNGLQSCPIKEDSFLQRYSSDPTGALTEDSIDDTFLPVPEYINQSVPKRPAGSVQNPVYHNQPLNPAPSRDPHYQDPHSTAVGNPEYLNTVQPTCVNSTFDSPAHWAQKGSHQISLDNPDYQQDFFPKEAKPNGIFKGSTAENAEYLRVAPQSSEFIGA
Text: as §1

[3] = test system: H1975 (lung cancer cells, EGFR L858R&T790M); experiment: Cell proliferation by MTT, H1975; type: cell-based; details: Homo sapiens, NCI-H1975, read-out: H1975 50% inhibitory concentration (IC50), 72 h
EGFRWT = EGFRWT (Homo sapiens, UniProt P00533); experiment: In vitro enzymatic activity assay (Z'-LYTE), wild type EGFR; type: biochemical; details: Z'-LYTE FRET peptide assay; read-out: EGFRWT kinase activity (IC50)
Chain of EGFRWT (P00533 25-1210): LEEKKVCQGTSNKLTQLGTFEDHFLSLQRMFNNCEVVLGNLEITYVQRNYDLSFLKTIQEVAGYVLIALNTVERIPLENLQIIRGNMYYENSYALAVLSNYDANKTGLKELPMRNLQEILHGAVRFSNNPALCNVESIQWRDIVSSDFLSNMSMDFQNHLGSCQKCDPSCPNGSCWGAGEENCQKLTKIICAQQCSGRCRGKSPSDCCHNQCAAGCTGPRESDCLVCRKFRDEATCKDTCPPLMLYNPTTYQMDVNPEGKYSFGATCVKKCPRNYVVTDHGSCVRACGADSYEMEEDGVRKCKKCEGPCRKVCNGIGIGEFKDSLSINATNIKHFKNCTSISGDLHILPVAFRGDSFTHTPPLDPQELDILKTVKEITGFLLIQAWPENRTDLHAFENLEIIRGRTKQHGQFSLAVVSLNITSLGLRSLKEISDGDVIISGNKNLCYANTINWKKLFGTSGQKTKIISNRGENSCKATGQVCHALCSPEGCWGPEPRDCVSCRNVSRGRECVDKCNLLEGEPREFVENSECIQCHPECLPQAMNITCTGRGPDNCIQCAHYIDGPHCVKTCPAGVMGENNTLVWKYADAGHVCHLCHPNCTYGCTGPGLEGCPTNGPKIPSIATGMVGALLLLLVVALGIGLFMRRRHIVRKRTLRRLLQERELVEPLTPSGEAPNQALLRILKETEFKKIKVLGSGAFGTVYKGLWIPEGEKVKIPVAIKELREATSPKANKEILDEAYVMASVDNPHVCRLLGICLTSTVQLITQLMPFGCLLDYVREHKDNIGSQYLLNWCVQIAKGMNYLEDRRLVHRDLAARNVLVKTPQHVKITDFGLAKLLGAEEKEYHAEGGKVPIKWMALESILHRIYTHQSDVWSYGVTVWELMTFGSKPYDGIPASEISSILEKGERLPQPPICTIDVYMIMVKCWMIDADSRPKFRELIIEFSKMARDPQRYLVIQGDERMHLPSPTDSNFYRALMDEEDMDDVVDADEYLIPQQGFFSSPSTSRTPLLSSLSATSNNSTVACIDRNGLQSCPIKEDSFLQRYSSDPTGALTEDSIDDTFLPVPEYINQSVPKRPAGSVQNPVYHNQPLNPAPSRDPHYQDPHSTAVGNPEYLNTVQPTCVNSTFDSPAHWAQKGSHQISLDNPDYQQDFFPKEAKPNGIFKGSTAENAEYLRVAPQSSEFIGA
Text: as §1

EGFR T790M kinase = target: T1, EGFR T790M kinase (Homo sapiens, UniProt P00533, T790M); experiment: In vitro enzymatic activity assay (Z'-LYTE), EGFR T790M; type: biochemical; details: Z'-LYTE FRET peptide assay; read-out: EGFRT790M kinase activity (IC50)
T1 construct: purchased invitrogen PV4803
Text: as §1

EGFRL858R + T790M = EGFRL858R + T790M (Homo sapiens, UniProt P00533, L858R/T790M); experiment: In vitro enzymatic activity assay (Z'-LYTE), EGFR L858R + T790M; type: biochemical; details: Z'-LYTE FRET peptide assay; read-out: EGFRL858R + T790M kinase activity (IC50)
Chain of EGFRL858R + T790M (P00533 25-1210 T790M/L858R): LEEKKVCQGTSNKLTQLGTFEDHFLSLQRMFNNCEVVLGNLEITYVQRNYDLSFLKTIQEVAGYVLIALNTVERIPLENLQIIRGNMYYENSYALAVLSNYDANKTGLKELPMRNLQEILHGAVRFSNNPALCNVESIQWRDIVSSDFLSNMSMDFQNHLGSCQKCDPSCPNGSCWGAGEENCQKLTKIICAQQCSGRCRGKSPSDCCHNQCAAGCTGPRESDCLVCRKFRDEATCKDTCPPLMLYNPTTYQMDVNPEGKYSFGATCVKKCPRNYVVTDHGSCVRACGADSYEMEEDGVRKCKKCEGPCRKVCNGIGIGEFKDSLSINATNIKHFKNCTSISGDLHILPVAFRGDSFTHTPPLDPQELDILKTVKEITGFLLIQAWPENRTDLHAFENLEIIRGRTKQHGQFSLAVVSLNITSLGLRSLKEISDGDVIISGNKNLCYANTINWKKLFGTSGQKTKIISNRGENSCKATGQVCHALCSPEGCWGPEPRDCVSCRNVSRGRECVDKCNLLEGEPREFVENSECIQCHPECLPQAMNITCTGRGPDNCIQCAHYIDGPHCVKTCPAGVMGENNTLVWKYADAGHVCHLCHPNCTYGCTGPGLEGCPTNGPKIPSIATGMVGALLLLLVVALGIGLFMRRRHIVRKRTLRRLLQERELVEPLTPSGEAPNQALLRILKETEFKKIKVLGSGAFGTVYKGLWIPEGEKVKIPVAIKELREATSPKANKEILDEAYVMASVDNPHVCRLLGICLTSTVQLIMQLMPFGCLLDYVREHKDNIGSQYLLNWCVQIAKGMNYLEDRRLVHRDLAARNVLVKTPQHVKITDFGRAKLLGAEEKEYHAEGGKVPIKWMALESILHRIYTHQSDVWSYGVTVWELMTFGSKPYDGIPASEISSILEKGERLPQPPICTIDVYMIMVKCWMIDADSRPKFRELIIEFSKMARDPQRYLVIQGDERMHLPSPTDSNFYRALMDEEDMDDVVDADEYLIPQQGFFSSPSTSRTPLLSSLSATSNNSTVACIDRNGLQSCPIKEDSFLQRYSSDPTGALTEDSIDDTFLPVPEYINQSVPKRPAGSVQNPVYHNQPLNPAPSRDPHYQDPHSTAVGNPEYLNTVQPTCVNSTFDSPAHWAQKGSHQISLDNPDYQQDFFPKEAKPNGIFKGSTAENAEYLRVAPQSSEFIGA
Text: as §1

EGFR kinase = experiment: In vitro kinase assays of FIGS. 1-22 (WT EGFR and EGFR T790M), inhibition at fixed concentration; type: biochemical; details: 1 μM; FIGS. 1-22 (WT EGFR, EGFR T790M)
Protocol: In vitro enzymatic activity assay: using Z′-LYTE™ technology (detect fluorescence, coupled-enzyme format, based on the differential sensitivity of phosphorylated and non-phosphorylated peptides to proteolytic cleavage), based on FRET, using Z′ LYTE™ FRET peptide substrate, detect the activity of compounds against enzymatic. (invitrogen, Z′-LYTE™ KINASE ASSAY KIT-TYR 2 PEPTIDE, PV3191) EGFR T790M kinase (invitrogen, PV4803) was diluted progressively, then FRET-peptide, ATP and different concentrations of compound are added to the solution. After one hour, site specific protease which can recognize and cleaves non-phosphorylated FRET-peptide. After another hour, using an excitation wavelength of 400 nm excites, then detect the […] at 445 nm and 520 nm.
In the enzymatic activity assay of 7-(substituted amino)-3,4-dihydropyrimido[4,5-d]pyrimidin-(1H)-ones against the EGFR kinase, due to the presence of the irreversible Michael addition reaction with the protein cysteine sites, some compounds show a relatively good inhibitive activity to both the two kinases. […] The R1 of 7-(substituted amino)-3,4-dihydropyrimido[4,5-d]pyrimidin-(1H)-ones plays a key role in the interaction between compounds and protein, especially when R1 is aryl, it can get the best activity. […]

[4] = test system: NCI-H820 (lung cancer cells); experiment: Cell proliferation by MTT, NCI-H820; type: cell-based; details: NCI-H820, read-out: NCI-H820 50% inhibitory concentration (IC50), 72 h

Chain of EGFRL861Q (P00533 25-1210 L861Q): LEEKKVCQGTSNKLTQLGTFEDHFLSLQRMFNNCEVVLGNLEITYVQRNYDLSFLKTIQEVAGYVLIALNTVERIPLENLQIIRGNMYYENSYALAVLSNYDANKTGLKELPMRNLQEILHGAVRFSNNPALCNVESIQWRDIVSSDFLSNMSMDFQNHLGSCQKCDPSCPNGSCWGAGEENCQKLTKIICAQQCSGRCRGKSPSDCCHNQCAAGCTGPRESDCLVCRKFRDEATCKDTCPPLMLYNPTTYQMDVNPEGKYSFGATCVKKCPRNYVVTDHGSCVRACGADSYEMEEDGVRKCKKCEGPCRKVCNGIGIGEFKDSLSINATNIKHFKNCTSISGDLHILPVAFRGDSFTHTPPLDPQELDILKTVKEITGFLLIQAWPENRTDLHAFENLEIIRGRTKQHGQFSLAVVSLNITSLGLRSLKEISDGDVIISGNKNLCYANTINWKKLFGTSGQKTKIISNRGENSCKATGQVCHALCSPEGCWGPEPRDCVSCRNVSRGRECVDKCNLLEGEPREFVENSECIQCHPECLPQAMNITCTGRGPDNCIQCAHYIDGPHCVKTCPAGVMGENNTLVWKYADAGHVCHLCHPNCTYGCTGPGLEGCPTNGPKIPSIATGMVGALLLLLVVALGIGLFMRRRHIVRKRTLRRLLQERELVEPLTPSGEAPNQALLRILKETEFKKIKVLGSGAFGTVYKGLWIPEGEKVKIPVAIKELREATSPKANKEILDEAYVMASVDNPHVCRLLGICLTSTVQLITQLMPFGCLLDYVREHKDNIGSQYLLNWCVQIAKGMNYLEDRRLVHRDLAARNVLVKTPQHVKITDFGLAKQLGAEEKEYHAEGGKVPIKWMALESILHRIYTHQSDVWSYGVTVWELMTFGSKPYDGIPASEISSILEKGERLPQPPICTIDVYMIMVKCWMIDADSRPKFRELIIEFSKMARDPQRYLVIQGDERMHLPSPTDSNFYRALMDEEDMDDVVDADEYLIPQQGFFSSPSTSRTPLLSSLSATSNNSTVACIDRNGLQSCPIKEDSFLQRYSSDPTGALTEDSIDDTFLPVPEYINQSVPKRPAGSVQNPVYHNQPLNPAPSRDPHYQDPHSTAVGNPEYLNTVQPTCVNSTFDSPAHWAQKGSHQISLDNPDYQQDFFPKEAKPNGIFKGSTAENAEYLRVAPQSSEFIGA

Row | SMILES | IC50 (EGFRL861Q) [nM] | IC50 [1] [nM] | IC50 [2] [nM] | IC50 (EGFRL858R) [nM] | IC50 [3] [nM] | IC50 (EGFRWT) [nM] | IC50 (EGFR T790M kinase) [nM] | IC50 (EGFRL858R + T790M) [nM] | inhibitive activity for inhibiting a kinase at a relatively high test concentration (EGFR kinase) | IC50 [4] [nM]
1 | COc1cc(N2CCN(C)CC2)ccc1Nc1ncc2c(n1)N(c1cccc(N)c1)C(=O)N(C)C2 [C-EGF33, 1-(3-aminophenyl)-7-(2-methoxy-4-(4-methylpiperazin-1-yl)phenylamino)-3-methyl-3,4-dihydropyrimido[4,5-d]pyrimidin-2(1H)-one] | 1000 to 10000 | > 30000 | 4890 | 100 to 1000 | > 20000 | 100 to 1000 | 1000 to 10000 | 1000 to 10000 | poor | –
2 | C=CC(=O)Nc1cccc(N2C(=O)N(C)Cc3cnc(Nc4ccc(N5CCSCC5)cc4)nc32)c1 [Compound X005, N-(3-(3-methyl-2-oxo-7-(4-thiomorpholinophenylamino)-3,4-dihydropyrimido[4,5-d]pyrimidin-1(2H)-yl)phenyl)acrylamide] | ≤ 10 | 16200 | 23 | ≤ 10 | 333 | ≤ 10 | ≤ 10 | ≤ 10 | – | > 100000
3 | C=CC(=O)Nc1cccc(N2C(=O)N(C)Cc3cnc(Nc4ccc(N5CCN(C)CC5)cc4OC(C)C)nc32)c1 [Compound X006, N-(3-(7-(2-isopropoxy-4-(4-methylpiperazin-1-yl)phenylamino)-3-methyl-2-oxo-3,4-dihydropyrimido[4,5-d]pyrimidin-1(2H)-yl)phenyl)acrylamide] | 10 to 100 | 62500 | 108 | 10 to 100 | 543 | ≤ 10 | 10 to 100 | 10 to 100 | – | > 100000
4 | C=CC(=O)Nc1cccc(N2C(=O)N(C)Cc3cnc(Nc4ccc(OCCN5CCOCC5)cc4OC)nc32)c1 [Compound X008, N-(3-(7-(2-methoxy-4-(2-morpholinoethoxy)phenylamino)-3-methyl-2-oxo-3,4-dihydropyrimido[4,5-d]pyrimidin-1(2H)-yl)phenyl)acrylamide] | ≤ 10 | 29900 | 179 | ≤ 10 | 1100 | ≤ 10 | 10 to 100 | ≤ 10 | – | > 100000
5 | C=CC(=O)Nc1cccc(N2C(=O)N(C)Cc3cnc(Nc4ccc(N5CCN(C)CC5)cc4OCC)nc32)c1 [Compound X009, N-(3-(7-(2-ethoxy-4-(4-methylpiperazin-1-yl)phenylamino)-3-methyl-2-oxo-3,4-dihydropyrimido[4,5-d]pyrimidin-1(2H)-yl)phenyl)acrylamide] | ≤ 10 | > 5000 | 3 | ≤ 10 | 710 | ≤ 10 | 10 to 100 | ≤ 10 | – | > 100000
6 | C=CC(=O)Nc1cccc(N2C(=O)N(C)Cc3cnc(Nc4ccc(N5CCN(C)CC5)cc4C)nc32)c1 [Compound X010, N-(3-(3-methyl-7-(2-methyl-4-(4-methylpiperazin-1-yl)phenylamino)-2-oxo-3,4-dihydropyrimido[4,5-d]pyrimidin-1(2H)-yl)phenyl)acrylamide] | ≤ 10 | 1450 | 53 | ≤ 10 | 173 | ≤ 10 | ≤ 10 | ≤ 10 | – | 41500

Next, values leading:

Row | IC50 (EGFRL861Q) [nM] | IC50 [1] [nM] | IC50 [2] [nM] | IC50 (EGFRL858R) [nM] | IC50 [3] [nM] | IC50 (EGFRWT) [nM] | IC50 (EGFR T790M kinase) [nM] | IC50 (EGFRL858R + T790M) [nM] | inhibitive activity for inhibiting a kinase at a relatively high test concentration (EGFR kinase) | IC50 [4] [nM] | SMILES
7 | ≤ 10 | 3440 | 125 | ≤ 10 | 179 | ≤ 10 | ≤ 10 | ≤ 10 | – | > 100000 | C=CC(=O)Nc1cccc(N2C(=O)N(C)Cc3cnc(Nc4ccc(N5CCC(N6CCN(C)CC6)CC5)cc4)nc32)c1 [Compound X003, N-(3-(3-methyl-7-(4-(4-(4-methylpiperazin-1-yl)piperidin-1-yl)phenylamino)-2-oxo-3,4-dihydropyrimido[4,5-d]pyrimidin-1(2H)-yl)phenyl)acrylamide]
8 | ≤ 10 | > 100000 | 181 | ≤ 10 | 261 | ≤ 10 | ≤ 10 | ≤ 10 | – | > 100000 | C=CC(=O)Nc1cccc(N2C(=O)N(C)Cc3cnc(Nc4ccc(N5CCC(N(C)C)CC5)cc4)nc32)c1 [Compound X004, N-(3-(7-(4-(4-(dimethylamino)piperidin-1-yl)phenylamino)-3-methyl-2-oxo-3,4-dihydropyrimido[4,5-d]pyrimidin-1(2H)-yl)phenyl)acrylamide]
9 | ≤ 10 | 3480 | 256 | ≤ 10 | 696 | ≤ 10 | ≤ 10 | ≤ 10 | – | > 100000 | C=CC(=O)Nc1cccc(N2C(=O)N(C)Cc3cnc(Nc4ccc(N5CCOCC5)cc4)nc32)c1 [Compound X007, N-(3-(3-methyl-7-(4-morpholinophenylamino)-2-oxo-3,4-dihydropyrimido[4,5-d]pyrimidin-1(2H)-yl)phenyl)acrylamide]
10 | ≤ 10 | 3970 | 29 | ≤ 10 | 115 | ≤ 10 | ≤ 10 | ≤ 10 | – | > 100000 | C=CC(=O)Nc1cccc(N2C(=O)N(C)Cc3cnc(Nc4ccc(N5CCN(C)CC5)cc4)nc32)c1 [x001, N-(3-(3-methyl-7-(4-(4-methylpiperazin-1-yl)phenylamino)-2-oxo-3,4-dihydropyrimido[4,5-d]pyrimidin-1(2H)-yl)phenyl)acrylamide]
